Results published in patent US6573275B1, “Bicyclic amines” (Syngenta Limited, priority 1995, dated 2003).

Test system: peach aphid (Myzus persicae)
Experiment: Insecticidal test against peach aphid, infested Chinese cabbage leaves sprayed
Format: in vivo
Settings: peach aphid (Myzus persicae) on Chinese cabbage leaves, sprayed with 500 ppm composition unless otherwise stated, mortality assessed after 3 days
Description: This Example illustrates the insecticidal properties of the compounds of Formula I. The activity of the compounds of Formula I was determined using a variety of pests. The pests were treated with a liquid composition containing 500 parts per million (ppm) by weight of the compound unless otherwise stated. The compositions were made by dissolving the compound in acetone and ethanol (50:50) mixture and diluting the solutions with water containing 0.05% by weight of a wetting agent sold under the trade name “SYNPERONIC” NP8 until the liquid composition contained the required concentration of the compound. “SYNPERONIC” is a Registered Trade Mark.
The test procedure adopted with regard to each pest was basically the same and comprised supporting a number of the pests on a medium which was usually a substrate, a host plant or a foodstuff on which the pests feed, and treating either or both the medium and the pests with the compositions. The mortality of the pests was then assessed at periods usually varying from two to five days after the treatment.
In this test Chinese cabbage leaves were infested with aphids, the infested leaves were sprayed with the test composition, and the mortality assessed after 3 days.

SMILES	Score (grading of mortality)
CC(C)N1C2CCC1CC(C#N)(c1cncc(Cl)c1)C2 (stereo not drawn) [Compound 87, exo-3-(5-chloropyrid-3-yl)-endo-3-cyano-8-isopropyl-8-azabicyclo[3.2.1]octane]	A (A indicates 80-100% mortality)
N#CC1(c2cncc(Cl)c2)CC2CCC(C1)N2C=CC(=O)C(F)(F)F (stereo not drawn) [Compound 88, exo-3-(5-chloropyrid-3-yl)-endo-3-cyano-8-(3-oxo-4,4,4-trifluorobut-1-en-1-yl)-8-azabicyclo[3.2.1]octane]	A (A indicates 80-100% mortality)
CC(OC(=O)N1C2CCC1CC(C#N)(c1cncc(Cl)c1)C2)C(Cl)(Cl)Cl (stereo not shown) [Compound 89]	C (C indicates less than 40% mortality)
C=CCOC(=O)N1C2CCC1CC(C#N)(c1cncc(Cl)c1)C2 (stereo not shown) [Compound 90]	A (A indicates 80-100% mortality)
N#CC1(c2cncc(Cl)c2)CC2CCC(C1)N2C(=O)OCc1ccccc1 (stereo not shown) [Compound 91]	A (A indicates 80-100% mortality)
N#CC1(c2cncc(Cl)c2)CC2CCC(C1)N2C(=O)OCCCl (stereo not shown) [Compound 92]	A (A indicates 80-100% mortality)
N#CC1(c2cncc(Cl)c2)CC2CCC(C1)N2Cc1c(F)c(F)c(F)c(F)c1F (stereo not drawn) [Compound 93, exo-3-(5-chloropyrid-3-yl)-endo-3-cyano-8-(pentafluorophenylmethyl)-8-azabicyclo[3.2.1]octane]	A (A indicates 80-100% mortality)
N#CC1(c2cncc(Cl)c2)CC2CCC(C1)N2c1ccc([N+](=O)[O-])cc1 (stereo not shown) [Compound 94]	C (C indicates less than 40% mortality)
CC(=O)N1C2CCC1CC(C#N)(c1cncc(Cl)c1)C2 (stereo not drawn) [Compound 95, exo-3-(5-chloropyrid-3-yl)-endo-3-cyano-8-acetyl-8-azabicyclo[3.2.1]octane]	A (A indicates 80-100% mortality)
N#CC1(c2cncc(Cl)c2)CC2CCC(C1)N2C(=O)C(F)(F)F (stereo not shown) [Compound 96]	A (A indicates 80-100% mortality)
N#CC1(c2cncc(Cl)c2)CC2CCC(C1)N2C(=O)c1ccc(Cl)cc1 (stereo not shown) [Compound 97]	C (C indicates less than 40% mortality)
N#CC1(c2cncc(Cl)c2)CC2CCC(C1)N2C(=O)c1ccc(F)cc1 (stereo not shown) [Compound 98]	A (A indicates 80-100% mortality)
N#CC1(c2cncc(Cl)c2)CC2CCC(C1)N2CCCF (stereo not shown) [Compound 99]	A (A indicates 80-100% mortality)
N#CC1(c2cncc(Cl)c2)CC2CCC(C1)N2Cc1ccc(C(F)(F)F)cc1C(F)(F)F (stereo not shown) [Compound 100]	A (A indicates 80-100% mortality)
N#CC1(c2cncc(Cl)c2)CC2CCC(C1)N2Cc1ccc(C(=O)O)cc1 (stereo not shown) [Compound 101]	A (A indicates 80-100% mortality)
CC=COc1cncc(C2(C#N)CC3CCC(C2)N3C)c1 (stereo not shown) [Compound 102]	A (A indicates 80-100% mortality)
N#CC1(c2cncc(Cl)c2)CC2CCC(C1)N2Cc1cccc(F)c1F (stereo not shown) [Compound 103]	A (A indicates 80-100% mortality)
N#CC1(c2cncc(Cl)c2)CC2CCC(C1)N2CCc1ccccc1 (stereo not drawn) [Compound 104, exo-3-(5-chloropyrid-3-yl)-endo-3-cyano-8-(2-phenylethyl)-8-azabicyclo[3.2.1]octane]	A (A indicates 80-100% mortality)
N#Cc1ccc(N2C3CCC2CC(C#N)(c2cncc(Cl)c2)C3)cc1 (stereo not shown) [Compound 105]	B (B indicates 40-79% mortality)
N#CC1(c2cncc(Cl)c2)CC2CCC(C1)N2CC=C(F)F (stereo not drawn) [Compound 106, exo-3-(5-chloropyrid-3-yl)-endo-3-cyano-8-(3,3-difluoroprop-2-en-1-yl)-8-azabicyclo[3.2.1]octane]	A (A indicates 80-100% mortality)
N#CC1(c2cncc(Cl)c2)CC2CCC(C1)N2CC(=O)O (stereo not shown) [Compound 107]	A (A indicates 80-100% mortality)
N#CC1(c2cncc(Cl)c2)CC2CCC(C1)N2Cc1cc(Br)cc(Br)c1 (stereo not shown) [Compound 108]	A (A indicates 80-100% mortality)
N#CC1(c2cncc(Cl)c2)CC2CCC(C1)N2Cc1ccc(F)c(Cl)c1 (stereo not drawn) [Compound 109, exo-3-(5-chloropyrid-3-yl)-endo-3-cyano-8-(3-chloro-4-fluorobenzyl)-8-azabicyclo[3.2.1]octane]	A (A indicates 80-100% mortality)

SMILES	Score (grading of mortality)
N#CC1(c2cncc(Cl)c2)CC2CCC(C1)N2C=O (stereo not drawn) [Compound 110, exo-3-(5-chloropyrid-3-yl)-endo-3-cyano-8-formyl-8-azabicyclo[3.2.1]octane]	A (A indicates 80-100% mortality)
CC(C)OC(=O)N1C2CCC1CC(C#N)(c1cncc(Cl)c1)C2 (stereo not shown) [Compound 111]	A (A indicates 80-100% mortality)
N#CC1(c2cncc(Cl)c2)CC2CCC(C1)N2S(=O)(=O)c1ccccc1 (stereo not shown) [Compound 112]	B (B indicates 40-79% mortality)
N#CC1(c2cncc(Cl)c2)CC2CCC(C1)N2Cc1c(F)cc(F)cc1F (stereo not shown) [Compound 113]	A (A indicates 80-100% mortality)
N#CC1(c2cncc(Cl)c2)CC2CCC(C1)N2Cc1c(F)ccc(F)c1F (stereo not shown) [Compound 114]	A (A indicates 80-100% mortality)
N#CC(c1ccccc1)N1C2CCC1CC(C#N)(c1cncc(Cl)c1)C2 (stereo not drawn) [Compound 115, exo-3-(5-chloropyrid-3-yl)-endo-3-cyano-8-(a-cyanobenzyl)-8-azabicyclo[3.2.1]octane]	A (A indicates 80-100% mortality)
COC(=O)N1C2CCC1CC(C#N)(c1cncc(Cl)c1)C2 (stereo not shown) [Compound 116]	A (A indicates 80-100% mortality)
N#CC1(c2cncc(Cl)c2)CC2CCC(C1)N2Cc1ccccn1 (stereo not drawn) [Compound 117, exo-3-(5-chloropyrid-3-yl)-endo-3-cyano-8-(pyrid-2-ylmethyl)-8-azabicyclo[3.2.1]octane]	A (A indicates 80-100% mortality)
N#CC1(c2cncc(Cl)c2)CC2CCC(C1)N2Cc1cccnc1 (stereo not shown) [Compound 118]	A (A indicates 80-100% mortality)
N#CC1(c2cncc(Cl)c2)CC2CCC(C1)N2Cc1ccncc1 (stereo not shown) [Compound 119]	A (A indicates 80-100% mortality)
N#CC1(c2ccccn2)CC2CCC(C1)N2CCF (stereo not shown) [Compound 120]	A (A indicates 80-100% mortality)
C[C@H](c1ccccc1)N1C2CCC1CC(C#N)(c1cncc(Cl)c1)C2 (stereo partly drawn) [Compound 121, (R)-exo-3-(5-chloropyrid-3-yl)-endo-3-cyano-8-(1-phenylethyl)-8-azabicyclo[3.2.1]octane]	A (A indicates 80-100% mortality)
C[C@@H](c1ccccc1)N1C2CCC1CC(C#N)(c1cncc(Cl)c1)C2 (stereo partly shown) [Compound 122]	A (A indicates 80-100% mortality)
Cc1nc(CN2C3CCC2CC(C#N)(c2cncc(Cl)c2)C3)cs1 (stereo not drawn) [Compound 123, exo-3-(5-chloropyrid-3-yl)-endo-3-cyano-8-((2-methylthiazol-4-yl)methyl)-8-azabicyclo[3.2.1]octane]	A (A indicates 80-100% mortality)
Cc1noc(C)c1CN1C2CCC1CC(C#N)(c1cncc(Cl)c1)C2 (stereo not drawn) [Compound 124, exo-3-(5-chloropyrid-3-yl)-endo-3-cyano-8-((3,5-dimethylisoxazol-4-yl)methyl)-8-azabicyclo[3.2.1]octane]	A (A indicates 80-100% mortality)
N#CC1(c2cncc(Cl)c2)CC2CCC(C1)N2Cc1ccc(Cl)s1 (stereo not shown) [Compound 125]	A (A indicates 80-100% mortality)
N#CC1(c2cncc(Cl)c2)CC2CCC(C1)N2c1ccc(C(F)(F)F)cn1 (stereo not shown) [Compound 126]	C (C indicates less than 40% mortality)
N#CC1(c2cncc(Cl)c2)CC2CCC(C1)N2c1cccc(F)n1 (stereo not drawn) [Compound 128, exo-3-(5-chloropyrid-3-yl)-endo-3-cyano-8-(6-fluoropyrid-2-yl)-8-azabicyclo[3.2.1]octane]	A (A indicates 80-100% mortality)
N#CC1(c2cncc(Cl)c2)CC2CCC(C1)N2c1ccc(F)cc1 (stereo not shown) [Compound 129]	A (A indicates 80-100% mortality)
N#CC1(c2cncc(Cl)c2)CC2CCC(C1)N2CC(F)(F)C(F)(F)F (stereo not shown) [Compound 130]	A (A indicates 80-100% mortality)
N#CC1(c2cncc(Cl)c2)CC2CCC(C1)N2CC(F)(F)C(F)F (stereo not shown) [Compound 131]	A (A indicates 80-100% mortality)
N#CC1(c2cncc(Cl)c2)CC2CCC(C1)N2CC(F)(F)C(F)(F)C(F)(F)F (stereo not shown) [Compound 132]	A (A indicates 80-100% mortality)
N#CC1(c2cncc(Cl)c2)CC2CCC(C1)N2CC(F)(F)C(F)(F)C(F)(F)C(F)F (stereo not shown) [Compound 133]	A (A indicates 80-100% mortality)
